Assay results as given in US12383548B2, “Antibacterial quinolines” (priority 2019, dated 2025).
Converted amounts (≈) assume the structure as drawn. Where two headings read alike, the source gives them in different places.

Key:
in vitro [1] = format: in vitro ADME; details: human, plasma, pH 7.4
Method: The assay was performed in a multiple-use 96-well dialysis unit (HTD96b dialyzer). […] 120 μl of non-diluted plasma spiked with the compound (1 μM, 1% final DMSO concentration) was added to one chamber and the same volume of phosphate buffer saline pH 7.4 to the other chamber. HTD96b dialyzer was covered with adhesive sealing film and incubated at 37° C. and 100 rpm orbital shaking for 5 hours. […] For sample preparation, an aliquot of the content of each chamber was mixed with the same volume of the blank opposite matrix. In order to define non-specific loss of the compound during this assay, standard solution was created by mixing an aliquot of spiked plasma with blank buffer without dialysis. Samples were diluted 10-fold with 100% acetonitrile with subsequent plasma proteins sedimentation by centrifugation. Supernatants were analysed using a Shimadzu VP HPLC system with a reverse phase column, coupled with a tandem mass spectrometer API 3000 (PE Sciex). The both positive and negative ion modes of the TurbolonSpray ion source were used. […]
The percentage of plasma protein bounded compound and its recovery were calculated using the equations below:
The percentage of plasma protein bounded compound and its recovery were calculated using the values obtained for each compound in the quantification of the 3 samples (in buffer, plasma and standard solution).

HepG2 cell line = test: in vitro cytotoxicity assay (MTS tetrazolium reduction, cell viability); format: cell-based; details: Homo sapiens, HepG2, 48 h, MTS, read-out: IC50
Method: In an embodiment, the in vitro cytotoxicity assay was carried out as follows. […] The assay was performed in 96 well plates for 48 h at 37° C. and 5% CO2 in incubation medium (low glucose DMEM with Glutamax, 10% FBS, 1% Pen/Strep and DMSO). Cells were exposed to 8 different compound concentrations in successive dilutions (usually, base 2), plus a positive control (a compound in a concentration known to decrease cell viability above 50%) and a negative control (incubation medium). Six replicate wells were assayed for each condition. Compound stock solutions were prepared in DMSO at 20 mM, whenever possible, filter sterilized, aliquoted and stored at −20° C. The maximum compound concentrations tested depend on its solubility in incubation medium, and on the maximum DMSO percentage allowable without loss of cell viability. At the end of the incubation period, tetrazolium reagent was added (CellTiter 96® AQueous Solution from Promega); cells were incubated for another 3 hours in order to promote tetrazolium reduction to formazan by viable cells. The amount of soluble formazan produced was evaluated by 490 nm absorbance reading in a spectrophotometer plate reader.

in vitro [2] = format: in vitro ADME; details: human, plasma
Method: The percentage of the test compounds remaining after incubation in plasma and their half-lives (T1/2) were calculated.

physchem = format: physicochemical; details: pH 7.4
Method: The solution was allowed to mix in a rotator for 1 hour at 30 rpm.

[3] = test system: susceptible H37Rv M. tuberculosis, strain ATCC 25618; test: Mycobacterium tuberculosis susceptibility assay REMA (resazurin microtiter assay); format: cell-based; details: Mycobacterium tuberculosis, 144 h, MTB growth, H37Rv, 6 days at 37° C., Middlebrook 7H9, read-out: REMA MIC

SMILES	fraction unbound at 5 h, 1 μM (in vitro [1])	IC50 (HepG2 cell line; Table 1, cytotoxicity) [µM]	IC50 (HepG2 cell line; Table 2, cytotoxicity) [µM]	half-life at 1 μM (in vitro [2]) [h]	logD (physchem)	MIC ([3]; Table 1) [µM]	MIC ([3]; Table 2) [µM]
CCOC(=O)C1CCN(c2ccc3cc(-c4cccc(O)c4)ccc3n2)CC1 [Compound 26, ethyl 1-(6-(3-hydroxyphenyl)quinolin-2-yl)piperidine-4-carboxylate]	≤ 0.01	> 100	> 100	> 2	> 4.5	< 7.8	< 7.8
CCOC(=O)C1CCN(c2ccc3cc(-c4ccnc(C)c4)ccc3n2)CC1 [Compound 40, ethyl 1-(6-(2-methylpyridin-4-yl)quinolin-2-yl)piperidine-4-carboxylate]		20 to 50				7.8 to 15.6 (≈ 2.93 to 5.86 µg/mL)	
CCOC(=O)C1CCN(c2ccc3cc(-c4ccc5[nH]ccc5c4)ccc3n2)CC1 [Compound 42, ethyl 1-(6-(1H-indol-5-yl)quinolin-2-yl)piperidine-4-carboxylate]		20 to 50				7.8 to 15.6 (≈ 3.12 to 6.23 µg/mL)	
